Among the data in PubChem BioAssay (NCI) are TGI and GI50 values, retold here.

Among the test systems are SNB-78 CNS; DLD-1 colon; XF 498 CNS; HOP-18 NSCLC; DMS 273 small cell lung; DMS 114 small cell lung; M19-MEL melanoma; LXFL 529 NSCLC; RXF-631 renal.
Common to all, as to experiment: NCI-60 cell line screen, 48 h

The structures appear in SMILES notation.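 Five compound concentrations were applied to cells in 96-well plates for 48 hours; endpoints were derived by simple linear interpolation of the resulting dose-response curve. GI50: concentration for 50% inhibition of growth. TGI marks complete inhibition of growth.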

As to `COc1cc2c(c(OC)c1OC)-c1[nH]ncc1CC2`, the TGI with SNB-78 CNS, with DLD-1 colon, with XF 498 CNS, with HOP-18 NSCLC, with DMS 273 small cell lung and in the assay on DMS 114 small cell lung was above 100 µM each time. Also, the TGI with M19-MEL melanoma and in the assay on LXFL 529 NSCLC was above 100 µM in each case.
For the compound `O=c1[nH]c(Br)nc2c(Br)c[nH]c12`, the TGI in the assay on SNB-78 CNS, with DLD-1 colon, with RXF-631 renal, in the assay with XF 498 CNS, in the assay on HOP-18 NSCLC and in the assay on DMS 273 small cell lung was above 100 µM throughout. The TGI with DMS 114 small cell lung, with M19-MEL melanoma and in the assay with LXFL 529 NSCLC was above 100 µM throughout.
`Cn1c(CCC#N)nc2ccc(Br)cc2c1=O`: the TGI with DLD-1 colon, in the assay with RXF-631 renal, in the assay on XF 498 CNS, with DMS 114 small cell lung and in the assay with LXFL 529 NSCLC was above 100 µM each time.
Consider `Cc1ccccc1C(=O)Oc1ccc(Oc2ccccc2)cc1`, for which the TGI in the assay on SNB-78 CNS, in the assay with DLD-1 colon, in the assay with XF 498 CNS, with HOP-18 NSCLC, with DMS 273 small cell lung and in the assay on DMS 114 small cell lung was above 100 µM in each case. The TGI with M19-MEL melanoma and in the assay on LXFL 529 NSCLC was above 100 µM each time.
On to `O=C(OCCOCBr)c1ccccc1`, for which the TGI with SNB-78 CNS, with DLD-1 colon, with RXF-631 renal, with HOP-18 NSCLC, with DMS 273 small cell lung and in the assay with DMS 114 small cell lung was above 100 µM in each case. The TGI in the assay on LXFL 529 NSCLC was above 100 µM.
Turning to `C(=C\c1csnn1)/c1cccnc1`, the TGI in the assay with SNB-78 CNS, with DLD-1 colon, with RXF-631 renal, with XF 498 CNS, with HOP-18 NSCLC and in the assay with DMS 114 small cell lung was above 100 µM each time. Also, the TGI in the assay with M19-MEL melanoma and with LXFL 529 NSCLC was above 100 µM throughout.
On to `CC(=O)N1CC2Nc3ccccc3C2CC1CO` (configuration not stated), for which the TGI with SNB-78 CNS, in the assay on DLD-1 colon, in the assay with RXF-631 renal, with XF 498 CNS, with DMS 273 small cell lung and in the assay on DMS 114 small cell lung was above 100 µM each time. Moreover, the TGI in the assay on M19-MEL melanoma and with LXFL 529 NSCLC was above 100 µM each time.
For `O=Cc1ccc(-c2ccc(-c3ccc(C=O)s3)o2)s1`, the TGI with SNB-78 CNS, in the assay with DLD-1 colon, with HOP-18 NSCLC, in the assay on DMS 273 small cell lung, with DMS 114 small cell lung and in the assay on M19-MEL melanoma was above 100 µM throughout. In the assay with LXFL 529 NSCLC, the TGI worked out at 0.324 µM.
Turning to `O=C1C=C(Nc2ccccc2C(=O)CC(=O)C(=O)Nc2cccc(C(F)(F)F)c2)c2ccccc2C1=O`, the TGI is above 100 µM in the assay with SNB-78 CNS; above 37.6 µM in the assay with DLD-1 colon; above 100 µM in the assay on RXF-631 renal; 48.7 µM in the assay with XF 498 CNS; 40.6 µM with HOP-18 NSCLC; above 94.4 µM in the assay with DMS 273 small cell lung. For the same compound, the TGI in the assay with DMS 114 small cell lung was determined as 35.1 µM; in the assay on M19-MEL melanoma it was 8.48 µM; with LXFL 529 NSCLC, 71.5 µM.
Regarding `CCCNCc1nc2ccc(Br)cc2c(=O)n1CCC`, the TGI was found to be 40.6 µM with SNB-78 CNS; 21.7 µM in the assay with DLD-1 colon; 19 µM in the assay with RXF-631 renal; 30.9 µM in the assay on XF 498 CNS; 32.1 µM with HOP-18 NSCLC; 25.2 µM in the assay with DMS 273 small cell lung. Besides, the TGI with DMS 114 small cell lung is 22.9 µM; with M19-MEL melanoma, 26.1 µM; with LXFL 529 NSCLC, 25.1 µM.
Turning to `Nc1ccc(Nc2nc(F)nc(-c3c4ccccc4c4n3CCS4)n2)cc1`, the TGI was above 100 µM in the assay on SNB-78 CNS; 34.8 µM with DLD-1 colon; 32.3 µM with RXF-631 renal; 20.3 µM in the assay with XF 498 CNS; 33.9 µM with HOP-18 NSCLC; 24 µM in the assay with DMS 273 small cell lung. Besides, the results for the TGI with DMS 114 small cell lung, in the assay on M19-MEL melanoma and in the assay on LXFL 529 NSCLC were 37.7 µM, 40.5 µM and 31.1 µM, respectively.
With `Cc1ccc(C)c(NC(=O)c2cc(-c3ccc([N+](=O)[O-])cc3)nc(N)n2)c1`, the TGI in the assay with DLD-1 colon, in the assay on XF 498 CNS, in the assay on HOP-18 NSCLC, in the assay with DMS 273 small cell lung, in the assay on DMS 114 small cell lung and with M19-MEL melanoma was above 100 µM each time. The compound further had a TGI in the assay with LXFL 529 NSCLC above 100 µM.
Take `COC(OC)c1cccc2c1C1(O)CCC3(CC21)OCCCCO3` (configuration not stated): the TGI in the assay with SNB-78 CNS, in the assay with DLD-1 colon, in the assay on HOP-18 NSCLC, in the assay with DMS 273 small cell lung, in the assay with DMS 114 small cell lung and in the assay with M19-MEL melanoma was above 100 µM throughout. The TGI in the assay on LXFL 529 NSCLC was above 100 µM.
`O=C(CCC(=O)Nc1ccc(Cl)cc1)CC(=O)c1ccc(F)cc1`: the TGI in the assay on SNB-78 CNS, in the assay on DLD-1 colon, in the assay with XF 498 CNS, with DMS 273 small cell lung and in the assay with LXFL 529 NSCLC was above 100 µM each time.
`O=c1c2ccc3cccc4c(=O)cc(c5ccccc15)-c2c34`: the TGI in the assay with DLD-1 colon was above 100 µM; with HOP-18 NSCLC, above 100 µM; in the assay with DMS 273 small cell lung, above 100 µM; in the assay on DMS 114 small cell lung it was above 100 µM; with M19-MEL melanoma, 54 µM; in the assay on LXFL 529 NSCLC, above 100 µM.
As to `N=C(N)SCCc1cn2ccccc2n1`, the TGI in the assay on SNB-78 CNS, in the assay with DLD-1 colon, with XF 498 CNS, with HOP-18 NSCLC, in the assay on DMS 273 small cell lung and with DMS 114 small cell lung was above 100 µM each time. This compound gave a TGI in the assay with M19-MEL melanoma above 100 µM.
Take `CC(C)C(=O)N[C@@H](C)C(=O)N(Cc1ccc2ccccc2c1)N=O`: the TGI in the assay on SNB-78 CNS is above 100 µM; in the assay on DLD-1 colon, above 100 µM; in the assay with XF 498 CNS, above 100 µM; in the assay on HOP-18 NSCLC, 0.0979 µM; in the assay on DMS 273 small cell lung, above 100 µM; with DMS 114 small cell lung, above 100 µM. In addition, the TGI with M19-MEL melanoma and in the assay with LXFL 529 NSCLC was above 100 µM throughout.
Consider `CC1(O)CC2C(CC1SCCO)C2(C)C` (configuration not stated), for which the TGI in the assay with SNB-78 CNS, in the assay on DLD-1 colon, in the assay on XF 498 CNS, in the assay with HOP-18 NSCLC, with DMS 273 small cell lung and in the assay on DMS 114 small cell lung was above 100 µM throughout. Besides, the TGI in the assay on M19-MEL melanoma and in the assay with LXFL 529 NSCLC was above 100 µM throughout.
Consider `CC1=CC(C)(C)N=C2SC(c3ccc(Cl)cc3)=NN12`, for which the TGI in the assay with SNB-78 CNS is above 100 µM; with DLD-1 colon it was 58.1 µM; with XF 498 CNS, 51.8 µM; in the assay on HOP-18 NSCLC, 80.5 µM; in the assay on DMS 273 small cell lung, above 100 µM; in the assay on DMS 114 small cell lung it was above 100 µM. For the same compound, the TGI with M19-MEL melanoma and with LXFL 529 NSCLC was above 100 µM each time.
For the compound `O=C(O)/C(=C/c1ccccc1[N+](=O)[O-])c1ccccc1`, the TGI in the assay with SNB-78 CNS, in the assay on DLD-1 colon, with RXF-631 renal, with XF 498 CNS, in the assay with DMS 273 small cell lung and in the assay on DMS 114 small cell lung was above 100 µM throughout. The TGI with M19-MEL melanoma and with LXFL 529 NSCLC was above 100 µM in each case.
`CCOC(=O)/N=C(\N)SCc1ccccc1`: the TGI in the assay on SNB-78 CNS, in the assay with DLD-1 colon, in the assay with RXF-631 renal, with XF 498 CNS, in the assay on HOP-18 NSCLC and in the assay with DMS 273 small cell lung was above 100 µM each time. The TGI in the assay on DMS 114 small cell lung, in the assay with M19-MEL melanoma and with LXFL 529 NSCLC was above 100 µM throughout.
With `CCC[CH2][Sn]([CH2]CCC)([O]C(=O)c1cccc(F)c1)[O]C(=O)c1cccc(F)c1`, the GI50 was 0.702 µM with SNB-78 CNS; 1.11 µM with DLD-1 colon; 0.209 µM in the assay on RXF-631 renal; 0.559 µM in the assay on XF 498 CNS; 1.39 µM in the assay with DMS 273 small cell lung; 0.376 µM in the assay on DMS 114 small cell lung. The GI50 in the assay on M19-MEL melanoma is 0.575 µM; in the assay on LXFL 529 NSCLC, 0.228 µM. In addition, the TGI in the assay on SNB-78 CNS came to 2.27 µM; in the assay on DLD-1 colon, 2.32 µM; in the assay with RXF-631 renal it was 0.486 µM; with XF 498 CNS, 2.04 µM; with DMS 273 small cell lung it was 3.4 µM; with DMS 114 small cell lung it was 1.63 µM. Also, the TGI in the assay with M19-MEL melanoma was found to be 1.93 µM; in the assay on LXFL 529 NSCLC, 0.664 µM.
In the case of `O=c1ccccc2cccc(O)c12`, the TGI in the assay with SNB-78 CNS, in the assay on DLD-1 colon, in the assay with RXF-631 renal, in the assay on XF 498 CNS, in the assay on HOP-18 NSCLC and with DMS 273 small cell lung was above 100 µM in each case. Besides, the TGI in the assay on DMS 114 small cell lung, in the assay on M19-MEL melanoma and in the assay on LXFL 529 NSCLC was above 100 µM in each case.
Turning to `CC(=O)OC12c3ccccc3C1CCCCCC21OCCCO1` (configuration not stated), the TGI in the assay on SNB-78 CNS, in the assay with DLD-1 colon, in the assay with DMS 273 small cell lung, in the assay with DMS 114 small cell lung, with M19-MEL melanoma and in the assay with LXFL 529 NSCLC was above 100 µM throughout.
For the compound `O=c1cc(Cl)nc[nH]1`, the TGI with SNB-78 CNS, with DLD-1 colon, with RXF-631 renal, in the assay with HOP-18 NSCLC, in the assay with DMS 273 small cell lung and in the assay with DMS 114 small cell lung was above 100 µM in each case. The TGI with M19-MEL melanoma and in the assay on LXFL 529 NSCLC was above 100 µM each time.
With `Cc1cc(NS(=O)(=O)c2ccc(NC(=O)c3cccc4c(N)c5ccccc5nc34)cc2)no1`, the TGI with SNB-78 CNS is 71.1 µM; with DLD-1 colon it was above 100 µM; in the assay with RXF-631 renal it was 38.7 µM; with XF 498 CNS, 55.5 µM; in the assay on DMS 273 small cell lung it was 49 µM; with DMS 114 small cell lung, 45.6 µM. Besides, the figures for the TGI with M19-MEL melanoma and with LXFL 529 NSCLC were 42.1 µM and above 100 µM, respectively.
As for `N=C(c1ccccc1)N(O)C1CCCCC1`, the TGI in the assay on SNB-78 CNS, with DLD-1 colon, in the assay on HOP-18 NSCLC, in the assay on DMS 273 small cell lung, in the assay on DMS 114 small cell lung and in the assay on M19-MEL melanoma was above 100 µM throughout. This compound also gave a TGI with LXFL 529 NSCLC above 100 µM.
Take `COc1ccc2c3c1C(=O)CCC3CO2` (configuration not stated): the TGI with SNB-78 CNS, in the assay on DLD-1 colon, in the assay on RXF-631 renal, in the assay on XF 498 CNS, in the assay on DMS 273 small cell lung and in the assay on DMS 114 small cell lung was above 100 µM each time. For the same compound, the TGI in the assay on M19-MEL melanoma and in the assay with LXFL 529 NSCLC was above 100 µM throughout.
